Several values for one entry are separate records, joined by “and”; a condition that tells them apart may be missing. Identical values can stand only once.
Legend:
[1] = Salt solubility measurement in water; details: for solubility / Solubility as free base / Solubility as salt: water, stirred at ambient temperature 18-20 hours, filtered, hplc assay; for solubility: thermodynamic from solid; for pH of the remaining solution: remaining solution after solubility measurement in water
[2] = tested on: gastric tumor (N87) cell line; test: Methylene blue growth inhibition assay, N87; assay type: cell-based; details: Homo sapiens, 72 h, N87 cells, 3 days
Procedure: (§1) Human breast (BT474), head and neck (HN5) and gastric tumor (N87) cell lines and human foreskin Fibroblasts (HFF) were cultured in low glucose DMEM (Life Technologies 12320-032) containing 10% fetal bovine serum (FBS) at 37° C. in a humidified 10% CO2, 90% air incubator. The SV40 transformed human mammary epithelial cell line HB4a was transfected with either human H-ras cDNA (HB4a r4.2) or the human c-erbB2 cDNA (HB4a c5.2). The HB4a clones were cultured in RPMI containing 10% FBS, insulin ([…]), hydrocortisone ([…]), supplemented with the selection agent hygromycin B (50 μg/ml). Cells were harvested using trypsin/EDTA, counted using a haemocytometer, and plated in […] of the appropriate media, at the following densities, in a 96-well tissue culture plate (Falcon 3075): BT474 10,000 cells/well, HN5 3,000 cells/well, N87 10,000 cells/well, HB4a c5.2 3,000 cells/well, HB4a r4.2 3,000 cells/well, HFF 2500 cells/well. The next day, compounds were diluted in DMEM containing […] gentamicin, at twice the final required concentration, from 10 mM stock solutions in DMSO. […] of these dilutions were added to the […] of media currently on the cell plates. Medium containing 0.6% DMSO was added to control wells. […] Optical density at 620 nm was measured on a microplate reader. Percent inhibition of cell growth was calculated relative to vehicle treated control wells. […]

breast (BT474) cell line = test: Methylene blue growth inhibition assay, BT474; assay type: cell-based; details: Homo sapiens, BT-474, 72 h, BT474 cells, 3 days
Procedure: as §1

[3] = tested on: head and neck (HN5) cell line; test: Methylene blue growth inhibition assay, HN5; assay type: cell-based; details: Homo sapiens, 72 h, HN5 cells, 3 days
Procedure: as §1

CS(=O)(=O)CCNCc1ccc(-c2ccc3ncnc(Nc4ccc(OCc5cccc(F)c5)c(Cl)c4)c3c2)o1.C[C@H](O)C(=O)O.C[C@H](O)C(=O)O [Di-L-lactate, N-{3-Chloro-4-[(3-fluorobenzyl)oxy]phenyl}-6-[5-({[2-(methanesulphonyl)ethyl]amino}methyl)-2-furyl]-4-quinazolinamine di-L-lactate]
solubility ([1]; Solubility as free base): > 10300 µg/mL | solubility ([1]; Solubility as salt): > 13500 µg/mL

CS(=O)(=O)CCNCc1ccc(-c2ccc3ncnc(Nc4ccc(OCc5cccc(F)c5)c(Cl)c4)c3c2)o1.O=C(O)c1ccccc1.O=C(O)c1ccccc1 [Dibenzoate, N-{3-Chloro-4-[(3-fluorobenzyl)oxy]phenyl}-6-[5-({[2-(methanesulphonyl)ethyl]amino}methyl)-2-furyl]-4-quinazolinamine dibenzoate]
solubility ([1]; Solubility as free base): 40 µg/mL | solubility ([1]; Solubility as salt): 60 µg/mL

CS(=O)(=O)CCNCc1ccc(-c2ccc3ncnc(Nc4ccc(OCc5cccc(F)c5)c(Cl)c4)c3c2)o1.O=S(=O)(O)c1ccccc1.O=S(=O)(O)c1ccccc1 [Dibesylate, N-{3-Chloro-4-[(3-fluorobenzyl)oxy]phenyl}-6-[5-({[2-(methanesulphonyl)ethyl]amino}methyl)-2-furyl]-4-quinazolinamine dibesylate]
Solubility as free base [1]: <LoD

CCS(=O)(=O)O.CCS(=O)(=O)O.CS(=O)(=O)CCNCc1ccc(-c2ccc3ncnc(Nc4ccc(OCc5cccc(F)c5)c(Cl)c4)c3c2)o1 [Diesylate, N-{3-Chloro-4-[(3-fluorobenzyl)oxy]phenyl}-6-[5-({[2-(methanesulphonyl)ethyl]amino}methyl)-2-furyl]-4-quinazolinamine diesylate]
solubility ([1]; Solubility as free base): ~19700 µg/mL | solubility ([1]; Solubility as salt): ~27200 µg/mL

CS(=O)(=O)CCNCc1ccc(-c2ccc3ncnc(Nc4ccc(OCc5cccc(F)c5)c(Cl)c4)c3c2)o1.O.O=C(O)/C=C\C(=O)O.O=C(O)/C=C\C(=O)O [Dimaleate monohydrate, N-{3-Chloro-4-[(3-fluorobenzyl)oxy]phenyl}-6-[5-({[2-(methanesulphonyl)ethyl]amino}methyl)-2-furyl]-4-quinazolinamine dimaleate monohydrate]
solubility ([1]; Solubility as free base): 40 µg/mL | solubility ([1]; Solubility as salt): 60 µg/mL

CS(=O)(=O)CCNCc1ccc(-c2ccc3ncnc(Nc4ccc(OCc5cccc(F)c5)c(Cl)c4)c3c2)o1.O=C(O)/C=C\C(=O)O.O=C(O)/C=C\C(=O)O [Dimaleate, N-{3-Chloro-4-[(3-fluorobenzyl)oxy]phenyl}-6-[5-({[2-(methanesulphonyl)ethyl]amino}methyl)-2-furyl]-4-quinazolinamine dimaleate]
Solubility as free base ([1]; dimaleate): 0.15 mg/mL and 0.14 mg/mL | Solubility as salt ([1]; dimaleate): 0.20 mg/mL and 0.19 mg/mL | solubility ([1]; Solubility as free base): 130 µg/mL | solubility ([1]; Solubility as salt): 180 µg/mL

CS(=O)(=O)CCNCc1ccc(-c2ccc3ncnc(Nc4ccc(OCc5cccc(F)c5)c(Cl)c4)c3c2)o1.CS(=O)(=O)O.CS(=O)(=O)O.O.O [Dimesylate dehydrate, N-{3-Chloro-4-[(3-fluorobenzyl)oxy]phenyl}-6-[5-({[2-(methanesulphonyl)ethyl]amino}methyl)-2-furyl]-4-quinazolinamine dimesylate dihydrate]
solubility ([1]; Solubility as free base): ~15300 µg/mL | solubility ([1]; Solubility as salt): ~21300 µg/mL

CS(=O)(=O)CCNCc1ccc(-c2ccc3ncnc(Nc4ccc(OCc5cccc(F)c5)c(Cl)c4)c3c2)o1.CS(=O)(=O)O.CS(=O)(=O)O.O [Dimesylate monohydrate, N-{3-Chloro-4-[(3-fluorobenzyl)oxy]phenyl}-6-[5-({[2-(methanesulphonyl)ethyl]amino}methyl)-2-furyl]-4-quinazolinamine dimesylate monohydrate]
Solubility as free base ([1]; dimesylate monohydrate): 1) ~4.70 mg/ml | Solubility as salt ([1]; dimesylate monohydrate): 1) 6.25 mg/ml | solubility ([1]; Solubility as free base): ~4360 µg/mL | solubility ([1]; Solubility as salt): 5800 µg/mL

CS(=O)(=O)CCNCc1ccc(-c2ccc3ncnc(Nc4ccc(OCc5cccc(F)c5)c(Cl)c4)c3c2)o1.CS(=O)(=O)O.CS(=O)(=O)O [Dimesylate, N-{3-Chloro-4-[(3-fluorobenzyl)oxy]phenyl}-6-[5-({[2-(methanesulphonyl)ethyl]amino}methyl)-2-furyl]-4-quinazolinamine dimesylate]
solubility ([1]; Solubility as free base): > 7350 µg/mL | solubility ([1]; Solubility as salt): > 10000 µg/mL

CS(=O)(=O)CCNCc1ccc(-c2ccc3ncnc(Nc4ccc(OCc5cccc(F)c5)c(Cl)c4)c3c2)o1 [GW572016X, N-{3-Chloro-4-[(3-fluorobenzyl)oxy]phenyl}-6-[5-({[2-(methanesulphonyl)ethyl]amino}methyl)-2-furyl]-4-quinazolinamine]
IC50 [2]: < 5 µM | IC50 (breast (BT474) cell line): < 5 µM | IC50 [3]: < 5 µM

CS(=O)(=O)CCNCc1ccc(-c2ccc3ncnc(Nc4ccc(OCc5cccc(F)c5)c(Cl)c4)c3c2)o1.O=C(O)C[C@H](O)C(=O)O [Mono L-malate, N-{3-Chloro-4-[(3-fluorobenzyl)oxy]phenyl}-6-[5-({[2-(methanesulphonyl)ethyl]amino}methyl)-2-furyl]-4-quinazolinamine mono-L-malate]
Solubility as salt ([1]; mono-L-malate): 0.07 mg/mL | solubility ([1]; Solubility as free base): 50 µg/mL | solubility ([1]; Solubility as salt): 60 µg/mL

CS(=O)(=O)CCNCc1ccc(-c2ccc3ncnc(Nc4ccc(OCc5cccc(F)c5)c(Cl)c4)c3c2)o1.C[C@H](O)C(=O)O [Mono-L-lactate, N-{3-Chloro-4-[(3-fluorobenzyl)oxy]phenyl}-6-[5-({[2-(methanesulphonyl)ethyl]amino}methyl)-2-furyl]-4-quinazolinamine mono-L-lactate]
Solubility as salt [1]: 2) 7.9 mg/ml | solubility ([1]; Solubility as free base): ~7300 µg/mL | solubility ([1]; Solubility as salt): 8500 µg/mL

CS(=O)(=O)CCNCc1ccc(-c2ccc3ncnc(Nc4ccc(OCc5cccc(F)c5)c(Cl)c4)c3c2)o1.O=C(O)CC(O)(CC(=O)O)C(=O)O [Monocitrate, N-{3-Chloro-4-[(3-fluorobenzyl)oxy]phenyl}-6-[5-({[2-(methanesulphonyl)ethyl]amino}methyl)-2-furyl]-4-quinazolinamine monocitrate]
solubility ([1]; Solubility as free base): 10 µg/mL | solubility ([1]; Solubility as salt): 10 µg/mL

CCS(=O)(=O)O.CS(=O)(=O)CCNCc1ccc(-c2ccc3ncnc(Nc4ccc(OCc5cccc(F)c5)c(Cl)c4)c3c2)o1 [Monoesylate, N-{3-Chloro-4-[(3-fluorobenzyl)oxy]phenyl}-6-[5-({[2-(methanesulphonyl)ethyl]amino}methyl)-2-furyl]-4-quinazolinamine monoesylate]
Solubility as free base [1]: 0.53 mg/mL | Solubility as salt [1]: 0.63 mg/mL | solubility ([1]; Solubility as free base): 520 µg/mL | solubility ([1]; Solubility as salt): 620 µg/mL

CS(=O)(=O)CCNCc1ccc(-c2ccc3ncnc(Nc4ccc(OCc5cccc(F)c5)c(Cl)c4)c3c2)o1.CS(=O)(=O)O [Monomesylate, N-{3-Chloro-4-[(3-fluorobenzyl)oxy]phenyl}-6-[5-({[2-(methanesulphonyl)ethyl]amino}methyl)-2-furyl]-4-quinazolinamine monomesylate]
solubility ([1]; Solubility as free base): 330 µg/mL | solubility ([1]; Solubility as salt): 390 µg/mL

CS(=O)(=O)CCNCc1ccc(-c2ccc3ncnc(Nc4ccc(OCc5cccc(F)c5)c(Cl)c4)c3c2)o1.O=C(O)CCC(=O)O [Succinate, N-{3-Chloro-4-[(3-fluorobenzyl)oxy]phenyl}-6-[5-({[2-(methanesulphonyl)ethyl]amino}methyl)-2-furyl]-4-quinazolinamine monosuccinate]
Solubility as free base [1]: <LoD | Solubility as salt [1]: <LoD

Lapatinib Di-L-Malate
pH of the remaining solution [1]: 3.2 | Solubility as free base [1]: 0.91 mg/mL | Solubility as salt [1]: 1.33 mg/mL

Lapatinib Difumarate
pH of the remaining solution [1]: 3.0 | Solubility as free base [1]: <LoD

Lapatinib Monofumarate
pH of the remaining solution [1]: 4.0 | Solubility as free base [1]: <LoD

— patent publication US20110245496A1, “Quinazoline Salt Compounds” (priority 2007, published 2011)
